Target: T1, human CRTH2 (Homo sapiens, UniProt Q9Y5Y4)
T1 construct: expressed in transfected cells
T1 sequence (Q9Y5Y4 1-395): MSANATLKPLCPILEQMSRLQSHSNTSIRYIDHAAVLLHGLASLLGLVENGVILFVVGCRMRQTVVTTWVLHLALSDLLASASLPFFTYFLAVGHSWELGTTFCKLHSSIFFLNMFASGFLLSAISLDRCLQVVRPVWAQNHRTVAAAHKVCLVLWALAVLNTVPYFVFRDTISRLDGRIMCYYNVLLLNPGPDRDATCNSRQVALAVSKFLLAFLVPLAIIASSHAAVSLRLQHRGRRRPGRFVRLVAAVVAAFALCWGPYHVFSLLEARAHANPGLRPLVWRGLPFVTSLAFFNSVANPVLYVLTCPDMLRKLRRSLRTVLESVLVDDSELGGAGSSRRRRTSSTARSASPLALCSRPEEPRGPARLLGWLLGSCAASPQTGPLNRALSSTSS
Assay: Human CRTH2 Receptor Binding Assay (whole cell, [3H]ramatroban competition)
Details: CHO-K1 cells stably expressing human CRTH2 and G-alpha16; 20 nM [3H]ramatroban; 1 hour, room temperature
Text: A whole cell receptor binding assay using [^3H]ramatroban as the competing radioactive ligand was employed to evaluate the compound binding activity to human CRTH2. The radioactive ligand [^3H]ramatroban was synthesized according to Sugimoto et. al. (Eur. J. Pharmacol. 524, 30-37, 2005) to a specific activity of 42 Ci/mmol.
A cell line stably expressing human CRTH2 was established by transfecting CHO-K1 cells with two mammalian expression vectors that harbored human CRTH2 and G-alpha16 cDNAs, respectively, using FuGene® 6 transfection reagent (from Roche). Stable clones expressing CRTH2 were selected by staining each clone with BM16 (BD Pharmingen™ from BD Biosciences, a division of Becton, Dickinson and Company), which is a rat monoclonal antibody to human CRTH2. The cells were maintained as monolayer cultures in Ham's F-12 medium containing 10% fetal bovine serum, 100 units/mL penicillin, 100 μg/mL streptomycin, 2 mM glutamine, 0.5 mg/mL G418 (geneticin) for CRTH2, and 0.2 mg/mL hygromycin-B (for G-alpha 16). For whole cell receptor binding assay, the monolayer cells were rinsed once with PBS (phosphate buffered saline), dissociated using ethylenediaminetetraacetate (Versene™ EDTA from Lonza Inc.), and suspended in PBS containing 10 mM MgCl2 and 0.06% BSA (bovine serum albumin) at 1.5×10^6 cells/mL.
The binding reactions (0.2 mL) were performed in 96-well plates at room temperature in PBS containing 1.5×10^5 cells, 10 mM MgCl2, 0.06% BSA, 20 nM [^3H]ramatroban, and test compound at various concentrations. After 1 hour of binding reactions, the cells were harvested on GF™/B filter microplates (microtiter plates with embedded glass fiber from PerkinElmer, Inc.) and washed 5 times with PBS using a Filtermate™ Harvester (a cell harvester that harvests and washes cells from microplates from PerkinElmer, Inc.). The radioactivities bound to the cells were determined using a microplate scintillation counter (TopCount® NXT, from PerkinElmer, Inc.) after adding 50 μL of Microscint™ 20 scintillation fluid (from PerkinElmer, Inc.) to each well of the filter plates. The radioactivity from non-specific binding was determined by replacing compound with 10 μM of 15(R)-15-methyl PGD2 (from Cayman Chemical Company) in the reaction mixtures. The radioactivity bound to the cells in the absence of compound (total binding) was determined by replacing compound with 0.25% of DMSO (dimethyl sulfoxide) in the reaction mixture. Specific binding data were obtained by subtracting the radioactivity of non-specific binding from each binding data.
The IC50 value is defined as the concentration of the tested compound that is required for 50% inhibition of total specific binding. In order to calculate the IC50 value, the percent inhibition data were determined for 7 concentrations for each compound. The percent inhibition for a compound at each concentration was calculated according to the following formula, [1−(specific binding in the presence of compound)/(total specific binding)]×100. The IC50 value was then obtained by fitting the percent inhibition data to a sigmoidal dose-response (4 parameter logistic) model in the XLfit® software Excel add-in program [from ID Business Solutions Ltd., model 205, where F(x)=(A+(B−A)/(1+((C/x)^D)))].

Compound | IC50 [nM]
O=C(O)Cn1ncc2c1CCCC2NS(=O)(=O)c1cnc(OC2CCCC2)c(Br)c1 (centres unmarked) [Example 3-3a, [4-(5-Bromo-6-cyclopentyloxy-pyridine-3-sulfonylamino)-4,5,6,7-tetrahydro-indazol-1-yl]-acetic acid] | 10.3
CN([C@@H]1CCCc2c1cnn2CC(=O)O)S(=O)(=O)c1ccc(OC2CCCC2)c(Cl)c1 [Example 4-1a, {(R)-4-[(3-Chloro-4-cyclopentyloxy-benzenesulfonyl)-methyl-amino]-1-4,5,6,7-tetrahydro-indazol-1-yl}-acetic acid] | 99.2
CN([C@@H]1CCCc2c1cnn2CC(=O)O)S(=O)(=O)c1cnc(OC2CCC2)c(Br)c1 [Example 4-2a, {(R)-4-[(5-Bromo-6-cyclobutoxy-pyridine-3-sulfonyl)-methyl-amino]-4,5,6,7-tetrahydro-indazol-1-yl}-acetic acid] | 39.1
CC(C)Oc1ncc(S(=O)(=O)N(C)[C@@H]2CCCc3c2cnn3CC(=O)O)cc1Br [Example 4-3a, {(R)-4-[(5-Bromo-6-isopropoxy-pyridine-3-sulfonyl)-methyl-amino]-4,5,6,7-tetrahydro-indazol-1-yl}-acetic acid] | 37.2
CN([C@@H]1CCCc2c1cnn2CC(=O)O)S(=O)(=O)c1cnc(OC2CCOCC2)c(Br)c1 [Example 4-4a, ((R)-4-{[5-Bromo-6-(tetrahydro-pyran-4-yloxy)-pyridine-3-sulfonyl]-methyl-amino}-4,5,6,7-tetrahydro-indazol-1-yl)-acetic acid] | 53.9
CN([C@@H]1CCCc2c1cnn2CC(=O)O)S(=O)(=O)c1cc(SC2CCCC2)cc(C(F)(F)F)c1 [Example 9-1a, {(R)-4-[(3-Cyclopentylsulfanyl-5-trifluoromethyl-benzenesulfonyl)-methyl-amino]-4,5,6,7-tetrahydro-indazol-1-yl}-acetic acid] | 12.6
CN([C@@H]1CCCc2c1cnn2CC(=O)O)S(=O)(=O)c1cc(C(F)(F)F)cc(S(=O)(=O)C2CCCC2)c1 [Example 10-2a, {(R)-4-[(3-Cyclopentanesulfonyl-5-trifluoromethyl-benzenesulfonyl)-methyl-amino]-4,5,6,7-tetrahydro-indazol-1-yl}-acetic acid] | 2.9
CN([C@@H]1CCCc2c1cnn2CC(=O)O)S(=O)(=O)c1cc(C(F)(F)F)cc(S(=O)(=O)C(C)(C)C)c1 [Example 10-4a, ((R)-4-{Methyl-[3-(2-methyl-propane-2-sulfonyl)-5-trifluoromethyl-benzenesulfonyl]-amino}-4,5,6,7-tetrahydro-indazol-1-yl)-acetic acid] | 4.7
CC(C)S(=O)(=O)c1cc(C(F)(F)F)cc(S(=O)(=O)N(C)[C@@H]2CCCc3c2cnn3CCC(=O)O)c1 [Example 10-5a, 3-((R)-4-{Methyl-[3-(propane-2-sulfonyl)-5-trifluoromethyl-benzenesulfonyl]-amino}-4,5,6,7-tetrahydro-indazol-1-yl)-propionic acid] | 2.4
CN([C@@H]1CCCc2c1cnn2CCC(=O)O)S(=O)(=O)c1cc(C(F)(F)F)cc(S(=O)(=O)C2CCCC2)c1 [Example 10-6a, 3-{(R)-4-[(3-Cyclopentanesulfonyl-5-trifluoromethyl-benzenesulfonyl)-methyl-amino]-4,5,6,7-tetrahydro-indazol-1-yl}-propionic acid] | 3.3
CN([C@@H]1CCCc2c1cnn2CCC(=O)O)S(=O)(=O)c1cc(C(F)(F)F)cc(S(=O)(=O)C(C)(C)C)c1 [Example 10-7a, 3-((R)-4-{Methyl-[3-(2-methyl-propane-2-sulfonyl)-5-trifluoromethyl-benzenesulfonyl]-amino}-4,5,6,7-tetrahydro-indazol-1-yl)-propionic acid] | 12.5

Now from value to compound:

IC50 [nM] | Compound
145 | CCOc1cc(C(F)(F)F)cc(S(=O)(=O)NC2CCCc3c2cnn3CC(=O)O)c1 (centres unmarked) [Example 3-1a, [4-(3-Ethoxy-5-trifluoromethyl-benzenesulfonylamino)-4,5,6,7-tetrahydro-indazol-1-yl]-acetic acid]
370 | CCOc1ncc(S(=O)(=O)NC2CCCc3c2cnn3CC(=O)O)cc1Br (centres unmarked) [Example 3-2a, [4-(5-Bromo-6-ethoxy-pyridine-3-sulfonylamino)-4,5,6,7-tetrahydro-indazol-1-yl]-acetic acid]
194 | CC(C)Oc1cc(C(F)(F)F)cc(S(=O)(=O)NC2CCCc3c2cnn3CC(=O)O)c1 (centres unmarked) [Example 3-4a, [4-(3-Isopropoxy-5-trifluoromethyl-benzenesulfonylamino)-4,5,6,7-tetrahydro-indazol-1-yl]-acetic acid]
3.1 | CS(=O)(=O)c1cc(C(F)(F)F)cc(S(=O)(=O)N[C@@H]2CCCc3c2cnn3CC(=O)O)c1 [Example 5-1a, [(R)-4-(3-Methanesulfonyl-5-trifluoromethyl-benzenesulfonylamino)-4,5,6,7-tetra-hydro-indazol-1-yl]-acetic acid]
2.5 | CN([C@@H]1CCCc2c1cnn2CC(=O)O)S(=O)(=O)c1cc(C(F)(F)F)cc(S(C)(=O)=O)c1 [Example 6-1a, {(R)-4-[(3-Methanesulfonyl-5-trifluoromethyl-benzenesulfonyl)-methyl-amino]-4,5,6,7-tetrahydro-indazol-1-yl}-acetic acid]
2.6 | CCS(=O)(=O)c1cc(C(F)(F)F)cc(S(=O)(=O)N[C@@H]2CCCc3c2cnn3CC(=O)O)c1 [Example 7-1a, [(R)-4-(3-Ethanesulfonyl-5-trifluoromethyl-benzenesulfonylamino)-4,5,6,7-tetrahydro-indazol-1-yl]-acetic acid]
2.9 | O=C(O)Cn1ncc2c1CCC[C@H]2NS(=O)(=O)c1cc(C(F)(F)F)cc(S(=O)(=O)C2CCCC2)c1 [Example 7-2a, [(R)-4-(3-Cyclopentane-sulfonyl-5-trifluoromethyl-benzenesulfonylamino)-4,5,6,7-tetrahydro-indazol-1-yl]-acetic acid]
3.3 | CC[S+]([O-])c1cc(C(F)(F)F)cc(S(=O)(=O)N(C)[C@@H]2CCCc3c2cnn3CC(=O)O)c1 (stereo partly drawn) [Example 8-1a, {(R)-4-[(3-Ethanesulfinyl-5-trifluoromethyl-benzenesulfonyl)-methyl-amino]-4,5,6,7-tetrahydro-indazol-1-yl}-acetic acid]
2.5 | CCS(=O)(=O)c1cc(C(F)(F)F)cc(S(=O)(=O)N(C)[C@@H]2CCCc3c2cnn3CC(=O)O)c1 [Example 10-1a, {(R)-4-[(3-Ethanesulfonyl-5-trifluoromethyl-benzenesulfonyl)-methyl-amino]-4,5,6,7-tetrahydro-indazol-1-yl}-acetic acid]
2.1 | CC(C)S(=O)(=O)c1cc(C(F)(F)F)cc(S(=O)(=O)N(C)[C@@H]2CCCc3c2cnn3CC(=O)O)c1 [Example 10-3a, ((R)-4-{Methyl-[3-(propane-2-sulfonyl)-5-trifluoromethyl-benzenesulfonyl]-amino}-4,5,6,7-tetrahydro-indazol-1-yl)-acetic acid]
7.8 | CC1(c2cc(C(F)(F)F)cc(S(=O)(=O)N[C@@H]3CCCc4c3cnn4CC(=O)O)c2)CC1 [Example 11-1a, {(R)-4-[3-(1-Methyl-cyclopropyl)-5-trifluoromethyl-benzenesulfonylamino]-4,5,6,7-tetrahydro-indazol-1-yl}-acetic acid]
22 | CC(C)c1cc(C(F)(F)F)cc(S(=O)(=O)N[C@@H]2CCCc3c2cnn3CC(=O)O)c1 [Example 12-1a, (R)-[4-(3-Isopropyl-5-trifluoromethyl-benzenesulfonylamino)-4,5,6,7-tetrahydro-indazol-1-yl]-acetic acid]

Source: patent US8124641B2, “Aminotetrahydroindazoloacetic acids” (Hoffmann-La Roche Inc., priority 2008, dated 2012)
